Here are results for one compound from patent US6350755B1, “Inhibitors of prenyl-protein transferase” (Merck & Co., Inc., priority 2000, dated 2002).

The target in this assay is T1, human FPTase (Homo sapiens, UniProt P49354+P49356).
T1 construct: made in house
As to the kind of experiment: In vitro inhibition of Ras farnesyl transferase. The class given is biochemical. The settings on record: recombinant FPTase; 650 nM Ras-CVLS, 100 nM farnesyl diphosphate; 30° C.; read-out: IC50 for inhibitory activity against human FPTase. The protocol: Transferase Assays. Isoprenyl-protein transferase activity assays are carried out at 30° C. unless noted otherwise. A typical reaction contains (in a final volume of 50 μL): [^3H]farnesyl diphosphate, Ras protein, 50 mM HEPES, pH 7.5, 5 mM MgCl2, 5 mM dithiothreitol, 10 μM ZnCl2, 0.1% polyethyleneglycol (PEG) (15,000-20,000 mw) and isoprenyl-protein transferase. The FPTase employed in the assay is prepared by recombinant expression as described in Omer, C. A., Kral, A. M., Diehl, R. E., Prendergast, G. C., Powers, S., Allen, C. M., Gibbs, J. B. and Kohl, N. E. (1993) Biochemistry 32:5167-5176. After thermally pre-equilibrating the assay mixture in the absence of enzyme, reactions are initiated by the addition of isoprenyl-protein transferase and stopped at timed intervals (typically 15 min) by the addition of 1 M HCl in ethanol (1 mL). The quenched reactions are allowed to stand for 15 m (to complete the precipitation process). After adding 2 mL of 100% ethanol, the reactions are vacuum-filtered through Whatman GF/C filters. Filters are washed four times with 2 mL aliquots of 100% ethanol, mixed with scintillation fluid (10 mL) and then counted in a Beckman LS3801 scintillation counter.
For inhibition studies, assays are run as described above, except inhibitors are prepared as concentrated solutions in 100% dimethyl sulfoxide and then diluted 20-fold into the enzyme assay mixture. […]

A word on the IC50: it is the point on the concentration scale where inhibition reaches its midpoint.

Molecules are shown by their SMILES.

As to `Cn1cnc2c1C1c3ccc(C#N)c(c3)Oc3cccc(c3)S(=O)(=O)NCCC(=O)N1CC2` (racemic) [Example 1], the IC50 was not above 5 µM.
